Data on eight compounds can be found in PMC9047694, “Phenolic Compounds From the Stems and Leaves of Berchemia lineata (L.) DC” (Frontiers in Chemistry, 2022).

The IC50 is the concentration that inhibits the measured activity by half.

This assay has as its target α-glucosidase (Saccharomyces cerevisiae, UniProt P53341). Kind of assay: α-Glucosidase inhibitory assay. The assay is classed as biochemical. The note with it: for IC50: 4-nitrophenyl-α-D-glucopyranoside substrate, 37°C, 30 min, absorbance 405 nm, read-out: IC50 (μM), α-glucosidase inhibitory activities; for inhibitory activities against α-glucosidase (in words): conclusion statement. The method, then: IC50 values were calculated from the graph of inhibition percentage against the logarithm of the concentrations of compounds.

A value given as a limit tells only on which side of the number the result lay.

Sequence of α-glucosidase (P53341 whole entry): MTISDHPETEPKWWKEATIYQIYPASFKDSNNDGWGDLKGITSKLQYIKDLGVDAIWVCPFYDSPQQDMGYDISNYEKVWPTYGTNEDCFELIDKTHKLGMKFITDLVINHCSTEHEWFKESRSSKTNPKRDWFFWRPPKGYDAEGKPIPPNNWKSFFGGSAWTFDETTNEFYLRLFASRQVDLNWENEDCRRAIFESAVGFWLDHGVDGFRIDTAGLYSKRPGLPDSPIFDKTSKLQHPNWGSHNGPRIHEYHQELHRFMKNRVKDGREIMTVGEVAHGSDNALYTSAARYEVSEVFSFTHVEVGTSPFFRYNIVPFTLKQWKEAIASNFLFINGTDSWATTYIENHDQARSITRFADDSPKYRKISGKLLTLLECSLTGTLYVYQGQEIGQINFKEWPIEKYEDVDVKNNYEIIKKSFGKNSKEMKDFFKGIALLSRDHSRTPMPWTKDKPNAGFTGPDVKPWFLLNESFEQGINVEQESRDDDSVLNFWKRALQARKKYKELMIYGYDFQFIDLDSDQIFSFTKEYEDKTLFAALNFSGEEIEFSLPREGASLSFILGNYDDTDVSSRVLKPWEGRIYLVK

Regarding `COc1cc(O[C@@H]2O[C@H](CO[C@@H]3O[C@@H](C)[C@H](O)[C@@H](O)[C@H]3O)[C@@H](O)[C@H](O)[C@H]2O)c2c(O)c3c(=O)cc(C)oc3cc2c1` [Compound 12, rubrofusarin-6-O-α-L-rhamnosyl-(1→6)-O-β-D-glucopyranside], the IC50 is more than 50 µM.

As to `O=c1c(O)c(-c2ccc(O)c(O)c2)oc2cc(O)cc(O)c12` [Compound 14, quercetin], the “inhibitory activities against α-glucosidase (in words)” value (from here on “inhibitory activities”) was “moderate inhibitory activities”.

Take vittarin-B [Compound 9]: the IC50 came to 22.5 µM and the “inhibitory activities” value is listed as “moderate inhibitory activities”.

As for `O=C1c2c(O)cc(O)cc2O[C@H](c2ccc(O)cc2)[C@H]1O` [Compound 17, dihydrokaempferol], the “inhibitory activities” value is reported as “moderate inhibitory activities”.

As for “demethylflavasperone-10-O-β-D-glucopyranoside [Compound 10]”, the half-maximal inhibitory concentration (IC50) was more than 50 µM.

Turning to `O=c1c(O)c(-c2ccc(O)cc2)oc2cc(O)cc(O)c12` [Compound 15, kaempferol], the “inhibitory activities” value is recorded as “moderate inhibitory activities”.

On to `COc1cc(O[C@@H]2O[C@H](CO)[C@@H](O)[C@H](O)[C@H]2O)c2c(O)c3c(=O)cc(C)oc3cc2c1` [Compound 11, rubrofusarin-6-O-β-D-glucopyranoside], for which the IC50 stood at 28 µM and the “inhibitory activities” value is “moderate inhibitory activities”.

With `COc1c(O)c(O)cc2c1C(=O)c1c(O)cc(C)cc1C2=O` [Compound 18, 2-hydroxyemodin 1-methyl ether], the IC50 was more than 50 µM.
